{
  "source": "patent US20070010484A1",
  "about": "“Method for treating or inhibiting the effects of injuries or diseases that result in neuronal degeneration and method for promoting neurogenesis” (YEDA RESEARCH AND DEVELOPMENT CO. LTD., priority 2003, published 2007)",
  "key": {"IGF-1": {"tested_on": "IGF-1", "assay": "IGF-1 expression in primary microglial cultures, immunocytochemistry", "format": "cell-based, C57Bl/6J mice", "method": "Primary microglial culture. Brains from neonatal (P0-P1) C57Bl/6J mice were stripped of their meninges and minced with scissors under a dissecting microscope (Zeiss, Stemi DV4, Germany) in Leibovitz-15 medium (Biological Industries, Beit Ha-Emek, Israel). After trypsinization (0.5% trypsin, 10 min, 37° C./5% CO2), the tissue was triturated. The cell suspension was washed in culture medium for glial cells (DMEM supplemented with 10% fetal calf serum (FCS; Sigma-Aldrich, Rehovot, Israel), 1-glutamine (1 mM), sodium pyruvate (1 mM), penicillin (100 U/ml), and streptomycin ([…])) and cultured at 37° C./5% CO2 in 75-cm2 Falcon tissue-culture flasks (BD Biosciences) coated with poly-D-lysine (PDL) ([…]; Sigma-Aldrich, Rehovot) in borate buffer (2.37 g borax and 1.55 g boric acid dissolved in 500 ml sterile water, pH 8.4) for 1 h, then rinsed thoroughly with sterile, glass-distilled water. Half of the medium was changed after 6 h in culture and every 2nd day thereafter, starting on day 2, for a total culture time of 10-14 days. […]"}, "IFN-γ": {"tested_on": "IFN-γ", "assay": "IFN-γ secretion by anti-CD3-activated T cells, ELISA", "format": "cell-based, human", "conditions": "2 h pretreatment, then anti-CD3 activation 24 h", "method": "Assay of IFN-γ secretion. Human T cells were purified and maintained in culture (RPMI containing 10% FCS, 1% pyruvate, 1% glutamine, 1% antibiotics, in a humidified atmosphere of 7% CO2in air), and the cells were activated for 2 h with the indicated concentrations of CSPG-DS. In order to stimulate the cells to secrete cytokines, they were replated (1×10^6 cells in 0.5 ml culture medium per well) in 24-well plates precoated with 1 μg/ml immobilized anti-CD3 mAb (non-tissue-culture grade). After 24 h the supernatants were collected and their IFN-γ contents determined by ELISA, using anti-IFN-γ mAb (Pharmingen, San Diego, Calif.) according to the manufacturer's instructions."}, "[1]": {"tested_on": "retinal ganglion cells (RGCs)", "method": "Glutamate-induced toxicity: C57Bl/6J mice were anesthetized by intraperitoneal (i.p.) injection of ketamine (80 mg/kg; Fort Dodge Laboratories, Fort Dodge, Iowa) and xylazine (16 mg/kg; Vitamed, Israel). Their right eyes were punctured with a 27 gauge needle in the upper part of the sclera and a hamilton syringe with a 30-gauge needle was inserted as far as the vitreal body. Each mouse was injected with a total volume of 1 μl saline containing L-glutamate (100 nmol). Mice in one group were also injected intravenously (i.v.) with 5 μg of CSPG-DSs in 200 μl saline (Schori, 2001).\nLabeling of retinal ganglion cells: Mice were anesthetized as described above and placed in a stereotactic device. The skull was exposed and the bregma identified and marked. […] A window was drilled in the scalp above the designated coordinates in the right and left hemispheres. […]\nAssessment of retinal ganglion cell survival: Retinas were examined for labeled retinal ganglion cells (RGCs) by fluorescence microscopy. Labeled cells from four to six fields of identical size (0.076 mm^2) were counted. […] Cells were counted under the fluorescence microscope (magnification ×800) by observers blinded to the treatment received by the mice. The average number of RGCs per field was calculated for each retina. The number of RGCs in the contralateral (uninjured) eye was also counted and served as an internal control."}, "[2]": {"tested_on": "Organotypic hippocampal slice cultures (OHSC)", "assay": "Organotypic hippocampal slice cultures, propidium iodide staining", "format": "cell-based", "conditions": "rat OHSCs, 2.5 μg/ml or 25 μg/ml, 24 h", "method": "Organotypic hippocampal slice cultures (OHSC): OHSC were prepared as described (Franklin and Paxinos, 1997) from rats brains (Lewis aged 8-10 days) CSPG-DSs were added to the OHSCs for 24 h. Propidium iodide (5 μg/ml; Sigma) was then added to the medium for 30 min. The brain slices were examined under a Zeiss laser-scanning confocal microscope (LSM510) or a Zeiss Axioplane 100 fluorescence light microscope."}},
  "data": [
    {"smiles": "CC(=O)N[C@H]1C(O)O[C@H](COS(=O)(=O)O)[C@H](O)[C@@H]1O[C@@H]1OC(C(=O)O)=C[C@H](O)[C@H]1O", "note": "(stereo partly drawn) [CSPG-DS, 2-acetoamido-2-deoxy-3-O-(β-D-gluco-4-enepyranosyluronic acid)-6-O-sulfo-D-galactose]", "values": [
      {"measurement": "LPS-induced suppression of IGF-I expression", "setting": "IGF-1; microglia pre-incubated with CSPG-DS (25 or 50 μg/ml) 1 h, then LPS 24 h", "result": "attenuated"},
      {"measurement": "IGF-1 expression by microglia", "setting": "IGF-1; mouse primary microglia", "result": "high levels"},
      {"measurement": "secretion of IFN-γ", "setting": "IFN-γ", "result": "significant reduction"},
      {"measurement": "neuronal survival in the absence of glutamate", "setting": "[1]; intravitreal injection of CSPG-DSs, no glutamate", "result": "no effect"},
      {"measurement": "number of surviving RGCs per mm2", "setting": "[1]; mice, intravitreal toxic glutamate, single i.v. injection of sulfated CSPG-DSs (5 μg), assessed 1 week later, mean±SEM", "result": "1965±166", "unit": "per mm2"},
      {"measurement": "neuronal loss (propidium iodide staining)", "setting": "[2]", "result": "significantly reduced"}
    ]}
  ]
}
